What follows are compounds tested on HT-29 cells (assay: HT-29 necroptosis cell viability assay (TNF-α/SMAC mimetic/zVAD-FMK, CellTiter-Glo)). Settings: HT-29 necroptosis cell viability assay; class symbols for IC50; read-out: Activity.
Assay type: cell-based
Method in brief: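 Necroptosis was triggered by TNF-α (10 ng/ml), SMAC mimetic (6 μM) and zVAD-FMK (10 μM) in serum-free medium during 20 h compound exposure (10 concentrations, threefold steps) of HT-29 cells. IC50 from duplicate dose-responses uses CellTiter-Glo ATP luminescence as viability read-out.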

SMILES	IC50
Cc1nc(C2CC(C(N)=O)C2)sc1Oc1ccc(-n2ncn(Cc3c(F)cccc3F)c2=O)cc1F (stereo not drawn) [Example 167, 3-(5-(4-(4-(2,6-difluorobenzyl)-5-oxo-4,5-dihydro-1H-1,2,4-triazol-1-yl)-2-fluorophenoxy)-4-methylthiazol-2-yl)cyclobutane-1-carboxamide]	< 100 nM

Same assay, conditions: Homo sapiens, HT-29, HT-29 necroptosis cell viability assay; class symbols for IC50; read-out: Activity

SMILES	IC50
Cc1nc(CO)c(Oc2ccc(-n3ncn(Cc4c(F)cccc4F)c3=O)cc2)s1 [Example 146]	100 to 1000 nM
O=c1n(Cc2c(F)cccc2F)cnn1-c1ccc(Oc2scnc2C(F)F)c(F)c1 [Example 147, 4-(2,6-difluorobenzyl)-2-(4-((4-(difluoromethyl)thiazol-5-yl)oxy)-3-fluorophenyl)-2,4-dihydro-3H-1,2,4-triazol-3-one]	< 100 nM
Cc1nc(C(=O)NCCN)sc1Oc1ccc(-n2ncn(Cc3ccccc3F)c2=O)cc1F [Example 148, N-(2-aminoethyl)-5-(2-fluoro-4-(4-(2-fluorobenzyl)-5-oxo-4,5-dihydro-1H-1,2,4-triazol-1-yl)phenoxy)-4-methylthiazole-2-carboxamide]	< 100 nM
O=c1n(Cc2c(F)cccc2F)cnn1-c1ccc(Oc2ncsc2C(F)F)c(F)c1 [Example 152, 4-(2,6-difluorobenzyl)-2-(4-((5-(difluoromethyl)thiazol-4-yl)oxy)-3-fluorophenyl)-2,4-dihydro-3H-1,2,4-triazol-3-one]	< 100 nM
CC1(N)CN(c2nc(C(F)F)c(Oc3ccc(-n4ncn(Cc5c(F)cccc5F)c4=O)cc3F)s2)C1 [Example 153, 2-(4-((2-(3-amino-3-methylazetidin-1-yl)-4-(difluoromethyl)thiazol-5-yl)oxy)-3-fluorophenyl)-4-(2,6-difluorobenzyl)-2,4-dihydro-3H-1,2,4-triazol-3-one]	< 100 nM
Cc1nc(CC(C)(C)O)sc1Oc1ccc(-n2ncn(Cc3c(F)cccc3F)c2=O)cc1F [Example 154, 4-(2,6-difluorobenzyl)-2-(3-fluoro-4-((2-(2-hydroxy-2-methylpropyl)-4-methylthiazol-5-yl)oxy)phenyl)-2,4-dihydro-3H-1,2,4-triazol-3-one]	< 100 nM
Cc1nc(CC#N)sc1Oc1ccc(-n2ncn(Cc3c(F)cccc3F)c2=O)cc1F [Example 155, 2-(5-(4-(4-(2,6-difluorobenzyl)-5-oxo-4,5-dihydro-1H-1,2,4-triazol-1-yl)-2-fluorophenoxy)-4-methylthiazol-2-yl)acetonitrile]	< 100 nM
Cc1nc(CO)sc1Oc1ccc(-n2ncn(Cc3c(F)cccc3F)c2=O)cc1F [Example 156, 4-(2,6-difluorobenzyl)-2-(3-fluoro-4-((2-(hydroxymethyl)-4-methylthiazol-5-yl)oxy)phenyl)-2,4-dihydro-3H-1,2,4-triazol-3-one]	< 100 nM
Cc1nc(CO)sc1Oc1ccc(-n2ncn(Cc3c(F)cccc3F)c2=O)cc1 [Example 157, 4-(2,6-difluorobenzyl)-2-(4-((2-(hydroxymethyl)-4-methylthiazol-5-yl)oxy)phenyl)-2,4-dihydro-3H-1,2,4-triazol-3-one]	< 100 nM
Cc1c(CO)nn(C)c1Oc1ccc(-n2nc3n(c2=O)C(c2ccccc2)CC3)cc1F (stereo not drawn) [Example 158, 2-(3-fluoro-4-((3-(hydroxymethyl)-1,4-dimethyl-1H-pyrazol-5-yl)oxy)phenyl)-5-phenyl-2,5,6,7-tetrahydro-3H-pyrrolo[2,1-c][1,2,4]triazol-3-one]	< 100 nM
Cc1nc(CN)sc1Oc1ccc(-n2ncn(Cc3c(F)cccc3F)c2=O)cc1F [Example 159, 2-(4-((2-(aminomethyl)-4-methylthiazol-5-yl)oxy)-3-fluorophenyl)-4-(2,6-difluorobenzyl)-2,4-dihydro-3H-1,2,4-triazol-3-one]	< 100 nM
Cc1nc(CN)sc1Oc1ccc(-n2ncn(Cc3c(F)cccc3F)c2=O)cc1 [Example 160, 2-(4-((2-(aminomethyl)-4-methylthiazol-5-yl)oxy)phenyl)-4-(2,6-difluorobenzyl)-2,4-dihydro-3H-1,2,4-triazol-3-one]	100 to 1000 nM
O=c1n(Cc2c(F)cccc2F)cnn1C1CCC(Oc2ccccc2)C1 (stereo not drawn) [Example 161, 4-(2,6-difluorobenzyl)-2-(3-phenoxycyclopentyl)-2,4-dihydro-3H-1,2,4-triazol-3-one]	1000 to 10000 nM
Cc1ncsc1OC1CCC(n2ncn(Cc3c(F)cccc3F)c2=O)CC1 (stereo not drawn) [Example 162, 4-(2,6-difluorobenzyl)-2-(4-((4-methylthiazol-5-yl)oxy)cyclohexyl)-2,4-dihydro-3H-1,2,4-triazol-3-one]	100 to 1000 nM
Cc1nc(C(C)N)sc1Oc1ccc(-n2ncn(Cc3c(F)cccc3F)c2=O)cc1F (stereo not drawn) [Example 163, 2-(4-((2-(1-aminoethyl)-4-methylthiazol-5-yl)oxy)-3-fluorophenyl)-4-(2,6-difluorobenzyl)-2,4-dihydro-3H-1,2,4-triazol-3-one]	< 100 nM
C/C(=N\O)c1nc(C)c(Oc2ccc(-n3ncn(Cc4c(F)cccc4F)c3=O)cc2F)s1 [Example 164, 4-(2,6-difluorobenzyl)-2-(3-fluoro-4-((2-(1-(hydroxyimino)ethyl)-4-methylthiazol-5-yl)oxy)phenyl)-2,4-dihydro-3H-1,2,4-triazol-3-one]	< 100 nM

SMILES	IC50
O=c1n(Cc2c(F)cccc2F)cnn1-c1cnc(Oc2ccccc2)s1 [Example 165, 4-(2,6-difluorobenzyl)-2-(2-phenoxythiazol-5-yl)-2,4-dihydro-3H-1,2,4-triazol-3-one]	100 to 1000 nM
Cc1nc(Oc2cccnc2)sc1-n1ncn(Cc2c(F)cccc2F)c1=O [Example 166, 4-(2,6-difluorobenzyl)-2-(4-methyl-2-(pyridin-3-yloxy)thiazol-5-yl)-2,4-dihydro-3H-1,2,4-triazol-3-one]	100 to 1000 nM
Cc1nc(CC(N)=O)sc1Oc1ccc(-n2ncn(Cc3c(F)cccc3F)c2=O)cc1F [Example 168, 2-(5-(4-(4-(2,6-difluorobenzyl)-5-oxo-4,5-dihydro-1H-1,2,4-triazol-1-yl)-2-fluorophenoxy)-4-methylthiazol-2-yl)acetamide]	< 100 nM
COc1cc(Oc2nc(C)c(-n3ncn(Cc4c(F)cccc4F)c3=O)s2)ccn1 [Example 169, 4-(2,6-difluorobenzyl)-2-(2-((2-methoxypyridin-4-yl)oxy)-4-methylthiazol-5-yl)-2,4-dihydro-3H-1,2,4-triazol-3-one]	1000 to 10000 nM
Cc1nc(C(F)(F)C(=O)O)sc1Oc1ccc(-n2ncn(Cc3c(F)cccc3F)c2=O)cc1F [Example 170, 2-(5-(4-(4-(2,6-difluorobenzyl)-5-oxo-4,5-dihydro-1H-1,2,4-triazol-1-yl)-2-fluorophenoxy)-4-methylthiazol-2-yl)-2,2-difluoroacetic acid]	100 to 1000 nM
COC(=O)c1ncsc1Nc1ccc(-n2ncn(Cc3c(F)cccc3F)c2=O)cc1 [Example 171, methyl 5-((4-(4-(2,6-difluorobenzyl)-5-oxo-4,5-dihydro-1H-1,2,4-triazol-1-yl)phenyl)amino)thiazole-4-carboxylate]	1000 to 10000 nM
Cc1cc(Oc2ccc(-n3ncn(Cc4c(F)cccc4F)c3=O)cc2F)n(C)n1 [Example 172, 4-(2,6-difluorobenzyl)-2-(4-((1,3-dimethyl-1H-pyrazol-5-yl)oxy)-3-fluorophenyl)-2,4-dihydro-3H-1,2,4-triazol-3-one]	< 100 nM
COC(=O)c1cnc(Oc2ccc(-n3ncn(Cc4c(F)cccc4F)c3=O)cc2F)n1C [Example 173, methyl 2-(4-(4-(2,6-difluorobenzyl)-5-oxo-4,5-dihydro-1H-1,2,4-triazol-1-yl)-2-fluorophenoxy)-1-methyl-1H-imidazole-5-carboxylate]	100 to 1000 nM
CC(=O)c1nc(C)c(Oc2ccc(-n3ncn(Cc4c(F)cccc4F)c3=O)cc2F)n1C [Example 174, 2-(4-((2-acetyl-1,4-dimethyl-1H-imidazol-5-yl)oxy)-3-fluorophenyl)-4-(2,6-difluorobenzyl)-2,4-dihydro-3H-1,2,4-triazol-3-one]	< 100 nM
Cc1cnn(C)c1Oc1ccc(-n2nc3n(c2=O)C(c2ccccc2)CC3)cc1F (stereo not drawn) [Example 175, 2-(4-((1,4-dimethyl-1H-pyrazol-5-yl)oxy)-3-fluorophenyl)-5-phenyl-2,5,6,7-tetrahydro-3H-pyrrolo[2,1-c][1,2,4]triazol-3-one]	< 100 nM
Cc1cnn(C)c1Oc1ccc(-n2ncn(Cc3c(F)cccc3F)c2=O)cc1 [Example 176, 4-(2,6-difluorobenzyl)-2-(4-((1,4-dimethyl-1H-pyrazol-5-yl)oxy)phenyl)-2,4-dihydro-3H-1,2,4-triazol-3-one]	< 100 nM
Cc1nn(C2COC2)c(C)c1Oc1ccc(-n2ncn(Cc3c(F)cccc3F)c2=O)cc1F [Example 177, 4-(2,6-difluorobenzyl)-2-(4-((3,5-dimethyl-1-(oxetan-3-yl)-1H-pyrazol-4-yl)oxy)-3-fluorophenyl)-2,4-dihydro-3H-1,2,4-triazol-3-one]	< 100 nM
Cc1n[nH]c(C)c1Oc1ccc(-n2ncn(Cc3c(F)cccc3F)c2=O)cc1F [Example 178, 4-(2,6-difluorobenzyl)-2-(4-((3,5-dimethyl-1H-pyrazol-4-yl)oxy)-3-fluorophenyl)-2,4-dihydro-3H-1,2,4-triazol-3-one]	< 100 nM
Cc1nn(CC2COC2)c(C)c1Oc1ccc(-n2ncn(Cc3c(F)cccc3F)c2=O)cc1F [Example 179, 4-(2,6-difluorobenzyl)-2-(4-((3,5-dimethyl-1-(oxetan-3-ylmethyl)-1H-pyrazol-4-yl)oxy)-3-fluorophenyl)-2,4-dihydro-3H-1,2,4-triazol-3-one]	< 100 nM
Cc1nn(CCO)c(C)c1Oc1ccc(-n2ncn(Cc3c(F)cccc3F)c2=O)cc1F [Example 180, 4-(2,6-difluorobenzyl)-2-(3-fluoro-4-((1-(2-hydroxyethyl)-3,5-dimethyl-1H-pyrazol-4-yl)oxy)phenyl)-2,4-dihydro-3H-1,2,4-triazol-3-one]	< 100 nM
CCOC(=O)c1nc(Oc2ccc(-n3ncn(Cc4c(F)cccc4F)c3=O)cc2F)n(C)c1C [Example 181, ethyl 2-(4-(4-(2,6-difluorobenzyl)-5-oxo-4,5-dihydro-1H-1,2,4-triazol-1-yl)-2-fluorophenoxy)-1,5-dimethyl-1H-imidazole-4-carboxylate]	100 to 1000 nM

From US20250179061A1 (SIRONAX LTD., priority 2022, published 2025)
